Measurements taken from patent US6730064B2, “Coated implantable medical device” (Cook Incorporated, priority 1998, dated 2004).

How the values were obtained:
[1] = test system: porcine coronary in-stent restenosis model; assay: Slow-release paclitaxel coated GR II stents versus control; assay type: in vivo; settings: 175-200 μg total drug
Source text: Furthermore, the coating itself appears biocompatible.

in-stent restenosis = assay: Fast-release low-dose and high-dose paclitaxel-coated stents versus control; assay type: in vivo, porcine
[2] = test system: stented coronary arteries (in-stent restenosis); assay: One-month pig studies, quantitative coronary angiography (QCA); assay type: in vivo, Juvenile domestic swine; settings: 1 month
Method: (§1) No other antiplatelet agents or anticoagulants were given.
(§2) Angiograms were recorded immediately before stent implantation, immediately after stent implantation and at 1 month follow-up. Immediately after the follow-up angiography, the hearts were excised and the coronary vasculature was perfusion fixed at physiologic pressure. The vessels were then processed to obtain histologic cross sections for morphometric analysis from proximal, middle and distal locations within each stent.
(§3) Computer assisted quantitative coronary angiography (QCA) analysis and histomorphometric analysis were performed on each stented artery. Qualitative histopathologic analysis was also performed, with each artery evaluated for both injury and inflammation.

[3] = test system: stented coronary arteries (in-stent restenosis); assay: One-month pig studies, histomorphometric analysis; assay type: in vivo, Juvenile domestic swine; settings: 1-month F/U
Method: as §1, §2, §3

[4] = test system: stented coronary arteries; assay: One-month pig studies, qualitative histopathologic analysis; assay type: in vivo, Juvenile domestic swine
Method: as §1, §2, §3

[5] = test system: pigs with stented coronary arteries; settings: in vivo
Source text: (§4) Juvenile domestic swine received one stent in the left anterior descending coronary artery (LAD) and/or one stent in the left circumflex (LCX) or right coronary arteries (RCA). To account for differences in vessel diameter prior to stenting, the deployment pressure for each stent was adjusted to achieve a balloon-to-artery ratio (BAR) of approximately 1.1-1.2. The pigs were followed for 1 month after stent implantation.
(§5) The pigs were fed a standard high fiber diet without lipid or cholesterol supplementation. For antiplatelet effect, each pig was administered approximately 325 mg aspirin and 250 mg ticlopidine daily, starting at least 2 days prior to surgery and continuing until the end of the study. Each pig was also administered approximately 10,000 units heparin during stent implantation and approximately 10,000 units heparin during follow-up angiography. No other antiplatelet agents or anticoagulants were given.

[6] = test system: pigs with stented coronary arteries; assay: One-month pig studies, premature deaths and safety
Source text: as §4, §5

[7] = In-vitro flow system (10 ml/min, 1% BSA in PBS): antibody remaining on stent; assay type: physicochemical; settings: after approximately 10 days perfusion
Source text: In still another aspect of the present invention as depicted in FIG. 11, coating layer 16 can be considered an adsorbent layer and/or an absorbent layer in which a bioactive material is attached thereto. In one particular example, device 10 is a stainless steel GR II™ stent in which the stainless steel base material 14 of structure 12 is coated with a polymer and, in particular, parylene. This adsorbent polymer layer 16 of parylene is approximately 230,000 Å thick. Bioactive material layer 18 of the antiplatelet GP IIb/IIIa antibody (AZ1) was passively loaded on adsorbent polymer layer 16. The polymer coated stainless steel stents were immersed for approximately 24 hours in a buffered aqueous solution of AZ1 antibody (1 mg/ml, pH=7.2) at 37° C. AZ1 is a monoclonal anti-rabbit platelet glycoprotein (GP) IIb/IIIa antibody.
In another example, c7E3 Fab as bioactive material layer 18 is attached to polymer coating layer 16. Bioactive material c7E3 Fab is a chimeric monoclonal antibody that acts upon the […] integrin on platelets to inhibit their aggregation. This antibody or receptor blocker can be used in humans intravenously to prevent thrombosis during coronary angioplasty. This receptor blocker is also known as ReoPro™ available from Eli Lilly, Indianapolis, Ind. […]

[8] = 400 μg paclitaxel+parylene N stents

CC(=O)O[C@H]1C(=O)[C@@]2(C)[C@H]([C@H](OC(=O)c3ccccc3)[C@]3(O)C[C@H](OC(=O)[C@H](O)[C@@H](NC(=O)c4ccccc4)c4ccccc4)C(C)=C1C3(C)C)[C@]1(OC(C)=O)CO[C@@H]1C[C@@H]2O [Paclitaxel, paclitaxel]
in-stent restenosis compared with controls [1]: significantly reduced
Area Stenosis (in-stent restenosis; Low-Dose): 19.3 ± 9.45 %
in-stent restenosis compared to control stents (in-stent restenosis; high-dose): significantly reduced
in-stent restenosis compared to control stents (in-stent restenosis; low-dose): significantly reduced
Late Loss ([2]; 5 μg paclitaxel on stent): 17.9 ± 20.3%
MLD at F/U ([2]; 5 μg paclitaxel on stent): 1.74 ± 0.45 mm
Mean Diameter at Follow-up ([2]; 5 μg paclitaxel on stent): 2.23 ± 0.51 mm
Late Loss ([2]; 15 μg paclitaxel on stent): 20.1 ± 19.9%
MLD at F/U ([2]; 15 μg paclitaxel on stent): 1.90 ± 0.38 mm
Mean Diameter at Follow-up ([2]; 15 μg paclitaxel on stent): 2.15 ± 0.43 mm
Late Loss ([2]; 35 μg paclitaxel on stent): 2.6 ± 7.5%
MLD at F/U ([2]; 35 μg paclitaxel on stent): 2.42 ± 0.25 mm
Mean Diameter at Follow-up ([2]; 35 μg paclitaxel on stent): 2.62 ± 0.21 mm
Late Loss ([2]; 85 μg paclitaxel on stent): 1.6 ± 8.1%
MLD at F/U ([2]; 85 μg paclitaxel on stent): 2.61 ± 0.15 mm
Mean Diameter at Follow-up ([2]; 85 μg paclitaxel on stent): 2.77 ± 0.22 mm
Late Loss ([2]; 400 μg paclitaxel + parylene N): 0.32 ± 7.1%
MLD at F/U ([2]; 400 μg paclitaxel + parylene N): 2.75 ± 0.17 mm
Mean Diameter at Follow-up ([2]; 400 μg paclitaxel + parylene N): 2.92 ± 0.22 mm
Lumen Diameter ([3]; 5 μg paclitaxel on stent): 1.77 ± 0.34 mm
Neointimal Thickness ([3]; 5 μg paclitaxel on stent): 0.31 ± 0.20 mm
Outer Diameter ([3]; 5 μg paclitaxel on stent): 2.73 ± 0.28 mm
Wall Thickness ([3]; 5 μg paclitaxel on stent): 0.48 ± 0.23 mm
Lumen Diameter ([3]; 15 μg paclitaxel on stent): 1.87 ± 0.37 mm
Neointimal Thickness ([3]; 15 μg paclitaxel on stent): 0.29 ± 0.19 mm
Outer Diameter ([3]; 15 μg paclitaxel on stent): 2.41 ± 0.90 mm
Wall Thickness ([3]; 15 μg paclitaxel on stent): 0.46 ± 0.22 mm
Lumen Diameter ([3]; 35 μg paclitaxel on stent): 2.12 ± 0.52 mm
Neointimal Thickness ([3]; 35 μg paclitaxel on stent): 0.19 ± 0.16 mm
Outer Diameter ([3]; 35 μg paclitaxel on stent): 2.78 ± 0.32 mm
Wall Thickness ([3]; 35 μg paclitaxel on stent): 0.33 ± 0.17 mm
Lumen Diameter ([3]; 85 μg paclitaxel on stent): 2.40 ± 0.31 mm
Neointimal Thickness ([3]; 85 μg paclitaxel on stent): 0.15 ± 0.08 mm
Outer Diameter ([3]; 85 μg paclitaxel on stent): 2.96 ± 0.31 mm
Wall Thickness ([3]; 85 μg paclitaxel on stent): 0.28 ± 0.10 mm
Lumen Diameter ([3]; 400 μg paclitaxel + parylene N): 2.58 ± 0.19 mm
Neointimal Thickness ([3]; 400 μg paclitaxel + parylene N): 0.12 ± 0.06 mm
Outer Diameter ([3]; 400 μg paclitaxel + parylene N): 3.06 ± 0.17 mm
Wall Thickness ([3]; 400 μg paclitaxel + parylene N): 0.24 ± 0.07 mm
histologic sections with occasional small patches of luminal fibrin ([4]; 5 μg paclitaxel stents): none
histologic sections with vessel wall hypocellularity and hyalinization ([4]; 5 μg paclitaxel stents): approximately 28%
histologic sections with occasional small patches of luminal fibrin ([4]; 15 μg paclitaxel stents): none
histologic sections with vessel wall hypocellularity and hyalinization ([4]; 15 μg paclitaxel stents): approximately 67%
histologic sections with occasional small patches of luminal fibrin ([4]; 35 μg paclitaxel stents): approximately 50%
histologic sections with vessel wall hypocellularity and hyalinization ([4]; 35 μg paclitaxel stents): over 80%
histologic sections with occasional small patches of luminal fibrin ([4]; 85 μg paclitaxel stents): approximately 50%
histologic sections with vessel wall hypocellularity and hyalinization ([4]; 85 μg paclitaxel stents): over 80%
histologic sections with occasional small patches of luminal fibrin [4, 8]: approximately 50%
histologic sections with vessel wall hypocellularity and hyalinization [4, 8]: over 80%
safety problems related to the stents [5]: no safety problems
Premature Deaths ([6]; 5 μg paclitaxel on stent): One pig (stents in LAD &
Premature Deaths ([6]; 5 μg paclitaxel on stent, listed as paclitaxel): One pig
Premature Deaths ([6]; 15 μg paclitaxel on stent): One pig (stents in LAD &
Premature Deaths ([6]; 15 μg paclitaxel on stent, listed as paclitaxel): One pig
Premature Deaths ([6]; 35 μg paclitaxel on stent): None
Premature Deaths ([6]; 85 μg paclitaxel on stent): None
Premature Deaths ([6]; 400 μg paclitaxel + parylene N): None

c7E3 Fab: chimeric monoclonal antibody acting on platelet GP IIb/IIIa integrin to inhibit aggregation
loaded antibody remaining on the stent [7]: approximately half
